Measured values reported in patent US20230234941A1, “Salts of Compound and Pharmaceutical Compositions Containing the Same” (Shenzhen Forward Pharmaceuticals Co., Limited., priority 2020, published 2023).
Read-outs that look alike come from different tables or passages of the source.

How the values were obtained:
Format in all cases: physicochemical
[1] = Solid storage stability test; conditions: for Original morphology / Original purity: original solid before storage; for chemical and physical stability after storage (summary): solid/25° C./60% RH/open/1 week and/or solid/60° C./closed container/1 week
Description: Each amorphous salt solid was weighed (two 2 mg samples were weighed for purity testing after solid storage stability study, and one 10 mg sample was weighed for XRPD testing after solid storage stability study) and placed in a glass vial. In a 25° C./60% RH solid storage stability test, the amorphous salt solid was placed in a 25° C./60% RH constant temperature and humidity chamber, and placed in the dark for 1 week (i.e. “solid/25° C./60% RH/open/1 week”), and in a 60° C. solid storage stability test, the amorphous salt solid was sealed in an oven at 60° C. and heated for 1 week in the dark (i.e. “solid/60° C./closed container/l week”). Then the sample was taken out for purity testing, crystal form detection and appearance observation, respectively.

[2] = Solid solubility test (2 h and 24 h); conditions: for solubility at 2 h / solubility at 24 h: thermodynamic from solid; for XRPD measured at 2 h: state of sample / solid fraction; for XRPD measured at 24 h: 24 h test, state of sample; for solubility at 24 h: read-out: Solubility measured at 24 h
Description: samples were weighed for each amorphous salt solid (equivalent to 20 mg of free base), and 10 mL of the following solvents were respectively added: 0.1N HCl solution (pH 1.0), 50 mM phosphate buffer (pH 4.5), FeSSIF-V1 (pH 5.0), FaSSIF-V1 (pH 6.5) and SGF (pH 2.0), […] The suspension was then centrifuged at 37° C., the supernatant was measured for solubility by HPLC, and the solid fraction was measured for XRPD. The target solubility was at least 2 mg (based on free base)/mL.

[3] = Chemical and physical stability of the salts at the end of the preparation
Text: It is crucial for drug development whether the salts obtained as above have chemical and physical stability at the end of the preparation. The chemical and physical stability of the salts at the end of the preparation includes: […]

[4] = Test BS1: solid/25° C./60% RH/open/1 week
[5] = listed as 1 eq. hydrochloride salt
[6] = listed as amorphous 1 eq. hydrochloride salt
[7] = solid/60° C./closed container/1 week (Test BS1)
[8] = FaSSIF-V1 (pH 6.5) (Test ES4, partly printed ES1)
[9] = FaSSIF-V1 (pH 6.5) (Test ES4, partly printed ES1), 37° C., based on free base
[10] = Test ES1: 0.1N HCl solution (pH 1.0)
[11] = Test ES1: 0.1N HCl solution (pH 1.0), 37° C., based on free base
[12] = Test ES2: 50 mM phosphate buffer (pH 4.5)
[13] = Test ES2: 50 mM phosphate buffer (pH 4.5), 37° C., based on free base
[14] = Test ES3: FeSSIF-V1 (pH 5.0), 37° C., based on free base
[15] = Test ES5: SGF (pH 2.0), 37° C., based on free base
[16] = listed as 2 eq. hydrochloride salt
[17] = listed as amorphous 2 eq. hydrochloride salt
[18] = listed as amorphous 1 eq. mesylate salt

SMILES | Purity [1, 4] [%] | Original morphology [1] | Original purity [1] [%] | Purity [1, 7] [%] | pH measured at 2 h [2, 8] | Solubility measured at 2 h [2, 9] [µg/mL] | XRPD measured at 2 h [2, 8] | pH measured at 2 h [2, 10] | Solubility measured at 2 h [2, 11] [µg/mL] | XRPD measured at 2 h [2, 10] | pH measured at 2 h [2, 12] | Solubility measured at 2 h [2, 13] [µg/mL] | XRPD measured at 2 h [2, 12] | pH measured at 2 h ([2]; Test ES3: FeSSIF-V1 (pH 5.0)) | Solubility measured at 2 h [2, 14] [µg/mL] | XRPD measured at 2 h ([2]; Test ES3: FeSSIF-V1 (pH 5.0)) | pH measured at 2 h ([2]; Test ES5: SGF (pH 2.0)) | Solubility measured at 2 h [2, 15] [µg/mL] | XRPD measured at 2 h ([2]; Test ES5: SGF (pH 2.0)) | Solubility measured at 24 h ([2]; Test ES3: FeSSIF-V1 (pH 5.0)) [µg/mL] | other results
C=CC(=O)Nc1cc(Nc2ncnc(-c3cn(C)c4ccccc34)n2)c(OC)cc1N(C)CCN(C)C [Example 2] | 99.9 | amorphous | 99.9 | 98.2 | (6.5) | >2000 | clear solution | (0.7) | >2000 | clear solution | (4.5) | >2000 | clear solution | (4.8) | >2000 | clear solution | (2.0) | >2000 | clear solution |  | chemical and physical stability after storage (summary) [1, 5]: chemically unstable; chemical and physical stability after storage (summary) [1, 6]: chemically unstable; physical and chemical stability under storage (in words) ([1]; solid/25° C./60% RH/open/1 week, listed as amorphous 1 eq. hydrochloride salt): good physical and chemical stability; decrease in purity ([1]; solid/60° C./closed container/1 week): about 2%; solubility at 2 h ([2]; 37 °C, 2 h solid solubility test, all five solvents, read-out: solubility in all solvents tested): > 2000 µg/mL; chemical and physical stability at the end of the preparation [3, 5]: chemically and physically stable; chemical and physical stability at the end of the preparation [3, 6]: chemically and physically stable
C=CC(=O)Nc1cc(Nc2ncnc(-c3cn(C)c4ccccc34)n2)c(OC)cc1N(C)CCN(C)C [Example 3] | 99.6 | amorphous | 99.9 | 99.6 | (6.1) | >2000 | clear solution | (0.71 | >2000 | clear solution | (4.2) | >2000 | clear solution | (4.8) | >2000 | clear solution | (1.8) | >2000 | clear solution |  | chemical and physical stability after storage (summary) [1, 16]: physically unstable; chemical and physical stability after storage (summary) [1, 17]: physically unstable; physical and chemical stability under storage (in words) ([1]; solid/25° C./60% RH/open/1 week, listed as amorphous 2 eq. hydrochloride salt): slight color change and showed a certain hygroscopicity (partial agglomeration); physical and chemical stability under storage (in words) ([1]; solid/60° C./closed container/1 week, listed as amorphous 2 eq. hydrochloride salt): good physical and chemical stability; chemical and physical stability at the end of the preparation [3, 16]: chemically and physically stable; chemical and physical stability at the end of the preparation [3, 17]: chemically and physically stable
C=CC(=O)Nc1cc(Nc2ncnc(-c3cn(C)c4ccccc34)n2)c(OC)cc1N(C)CCN(C)C [Example 4] | 99.8 | amorphous | 99.9 | 99.9 | (6.5) | >2000 | clear solution | (0.7) | >2000 | clear solution | (4.5) | >2000 | clear solution | (4.8) | >2000 | clear solution | (2.0) | >2000 | clear solution | >2000 | chemical and physical stability after storage (summary) ([1]; listed as 1 eq. mesylate salt): chemically and physically stable; chemical and physical stability after storage (summary) [1, 18]: chemically and physically stable; physical and chemical stability under storage (in words) ([1]; solid/25° C./60% RH/open/1 week, listed as amorphous 1 eq. mesylate salt): good physical and chemical stability; physical and chemical stability under storage (in words) ([1]; solid/60° C./closed container/1 week, listed as amorphous 1 eq. mesylate salt): good physical and chemical stability; pH measured at 24 h ([2]; Test ES3: FeSSIF-V1 (pH 5.0)): (5.0); XRPD measured at 24 h ([2]; Test ES3: FeSSIF-V1 (pH 5.0)): clear solution; Solubility measured at 24 h ([2]; Test ES4: FaSSIF-V1 (pH 6.5)): >2000 µg/mL; pH measured at 24 h ([2]; Test ES4: FaSSIF-V1 (pH 6.5)): (6.6); XRPD measured at 24 h ([2]; Test ES4: FaSSIF-V1 (pH 6.5)): clear solution; chemical and physical stability at the end of the preparation ([3]; listed as 1 eq. mesylate salt): chemically and physically stable; chemical and physical stability at the end of the preparation [3, 18]: chemically and physically stable
C=CC(=O)Nc1cc(Nc2ncnc(-c3cn(C)c4ccccc34)n2)c(OC)cc1N(C)CCN(C)C [Example 1] | 99.6 | amorphous | 99.9 | 99.9 | (6.8) | >2000 | clear solution | (0.8) | >2000 | clear solution | (4.6) |  | clear solution | (4.9) |  | clear solution | (2.4) | >2000 | clear solution | >2000 | physical and chemical stability under storage (in words) ([1]; solid/25° C./60% RH/open/1 week, listed as amorphous free base): good physical and chemical stability; physical and chemical stability under storage (in words) ([1]; solid/60° C./closed container/1 week, listed as amorphous free base): transformed from amorphous to a moderate crystallinity; solubility at 2 h ([2]; 50 mM phosphate buffer, 37 °C, pH 4.5, aqueous buffer, Test ES2: 50 mM phosphate buffer (pH 4.5), 37° C., based on free base, read-out: Solubility measured at 2 h): > 2000 µg/mL; solubility at 24 h ([2]; FaSSIF-V1, 37 °C, pH 6.5, fassif, Test ES4: FaSSIF-V1 (pH 6.5)): > 2000 µg/mL; solubility at 2 h ([2]; FeSSIF-V1, 37 °C, pH 5, fessif, Test ES3: FeSSIF-V1 (pH 5.0), 37° C., based on free base, read-out: Solubility measured at 2 h): > 2000 µg/mL; solubility at 24 h ([2]; FeSSIF-V1, 37 °C, pH 5, fessif, Test ES3: FeSSIF-V1 (pH 5.0)): > 2000 µg/mL; pH measured at 24 h ([2]; Test ES3: FeSSIF-V1 (pH 5.0)): (5.0); XRPD measured at 24 h ([2]; Test ES3: FeSSIF-V1 (pH 5.0)): clear solution; Solubility measured at 24 h ([2]; Test ES4: FaSSIF-V1 (pH 6.5)): >2000 µg/mL; pH measured at 24 h ([2]; Test ES4: FaSSIF-V1 (pH 6.5)): (6.8); XRPD measured at 24 h ([2]; Test ES4: FaSSIF-V1 (pH 6.5)): clear solution; chemical and physical stability at the end of the preparation ([3]; listed as amorphous free base): chemically and physically stable
